For one data set, the target named is Neuraminidase (Influenza A virus, UniProt B4URF0). On the set-up: species or system Influenza A virus (A/Anhui/1/2005(H5N1)).
Data set [1] is described as follows: Inhibition of Influenza A virus (A/California/04/2009(H1N1)) Neuraminidase using MUNANA as substrate preincubated for 5 to 15 mins followed by substrate addition and measured after 30 mins by fluorescence spectrophotometric method.
Data set [2] relates to Influenza A virus. Format: functional, organism-based. To be noted: A/California/04/2009(H1N1), MDCK, time 46.0 hrs.
The test system of another data set is MDCK. The data set is described as follows: Cytotoxicity against MDCK cells assessed as reduction in cell viability at 250 uM. Format: cell-based, Canis lupus familiaris. As to conditions: dog.
The nature of data set [3]: Stability of the compound in human plasma assessed as parent compound remaining measured immediately. To be noted: read-out: Stabilty. Format: ADME, cell-free.
The nature of data set [4]: Stability of the compound in human plasma assessed as parent compound remaining measured after 10 mins. It is filed as ADME, cell-free. To be noted: read-out: Stabilty.
The nature of data set [5]: Stability of the compound in human plasma assessed as parent compound remaining measured after 30 mins. Format: ADME, cell-free. As to conditions: read-out: Stabilty.
Data set [6] is described as follows: Stability of the compound in human plasma assessed as parent compound remaining measured after 60 mins. It is filed as ADME, cell-free. To be noted: read-out: Stabilty.
The nature of data set [7]: Stability of the compound in human plasma assessed as parent compound remaining measured after 120 mins. It is filed as ADME, cell-free. To be noted: read-out: Stabilty.
A short description of data set [8]: in vitro. As to conditions: mouse, liver microsomes. Background: Liver microsomes are a subcellular fraction often used to study metabolism.
Data set [9] is described as follows: in vitro. To be noted: rat, liver microsomes.
Data set [10] is described as follows: in vitro. As to conditions: human, liver microsomes.
Data set [11] deals with Influenza A virus. Nature of the data set: microbe, parasite or virus in culture. To be noted: A/California/04/2009(H1N1), MDCK, 48 h.

Activity calls are given as the source filed them. A value given as a limit tells only on which side of the number the result lay.

A word on the IC50: it is the concentration that inhibits the measured activity by half. The half-life is the time needed for the level to fall by half in the phase considered. A high value points to slow decline. As a reminder, the EC50 is the concentration giving half of the maximal effect.

Sequence of Neuraminidase (B4URF0 whole entry): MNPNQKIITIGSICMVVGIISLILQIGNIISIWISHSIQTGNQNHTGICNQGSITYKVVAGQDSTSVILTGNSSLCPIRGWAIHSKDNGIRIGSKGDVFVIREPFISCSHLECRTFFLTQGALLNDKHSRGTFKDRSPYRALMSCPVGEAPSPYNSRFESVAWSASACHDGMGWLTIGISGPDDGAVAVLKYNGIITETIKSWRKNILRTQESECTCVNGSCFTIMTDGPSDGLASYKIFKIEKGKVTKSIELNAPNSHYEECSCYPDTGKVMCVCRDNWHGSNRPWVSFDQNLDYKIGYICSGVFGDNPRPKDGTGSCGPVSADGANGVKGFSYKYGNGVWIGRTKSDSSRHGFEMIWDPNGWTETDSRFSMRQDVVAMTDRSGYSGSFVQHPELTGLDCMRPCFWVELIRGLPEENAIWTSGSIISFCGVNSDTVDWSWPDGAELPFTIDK

On to `CCCCCCCNNC(=O)N[C@H]1CC(C(=O)O)=C[C@@H](OC(CC)CC)[C@@H]1NC(C)=O`, for which, on Neuraminidase, the IC50 turned out to be 575 nM.

As to `CCC(CC)O[C@@H]1C=C(C(=O)O)C[C@H](NC(=O)NN)[C@H]1NC(C)=O`, the IC50 on Neuraminidase worked out at 26.8 nM; in data set [1], 11.9 nM. Besides, the result with Influenza A virus [2] was inactive. Moreover, the Activity entry in the data set with MDCK was “Non-Toxic”. Also, the remaining at 0 min in data set [3] came to 100%. The remaining at 10 min in data set [4] is 88.6%. Besides, in [5], the remaining at 0.5 h was determined as 98.8%. In data set [6], the remaining at 1 h was found to be 99.5%. Moreover, the remaining at 2 h in data set [7] was determined as 107%. The half-life in the data set “in vitro [8]” was 49.7 min; in the data set “in vitro [9]”, 45.9 min; in “in vitro [10]”, 72.9 min. The same compound returned an EC50 in the data set on Influenza A virus [11] of 7.8 nM.

As for `CCC(CC)O[C@@H]1C=C(C(=O)O)C[C@H](NC(N)=O)[C@H]1NC(C)=O`, the values for the IC50 (against Neuraminidase; in [1]) were 254 nM and 8.7 nM, respectively.

The compound `CCC(CC)O[C@@H]1C=C(C(=O)O)C[C@H](N)[C@H]1NC(C)=O` [OSELTAMIVIR CARBOXYLATE] showed a 50% effective concentration (EC50) with Influenza A virus [11] of 1.4 nM.

Regarding `CCC(CC)O[C@@H]1C=C(C(=O)O)C[C@H](NC(=O)NNCc2ccc(Cl)cc2)[C@H]1NC(C)=O`, the midpoint of inhibition against Neuraminidase, the IC50, lay at 875 nM.

With `CCCNNC(=O)N[C@H]1CC(C(=O)O)=C[C@@H](OC(CC)CC)[C@@H]1NC(C)=O`, the half-inhibitory concentration (IC50) at Neuraminidase is 241 nM.

On to `CCC(CC)O[C@@H]1C=C(C(=O)O)C[C@H](NC(=O)NNC/C=C/c2ccccc2)[C@H]1NC(C)=O`, for which the IC50 on Neuraminidase was 7850 nM.

In turn, `CCC(CC)O[C@@H]1C=C(C(=O)O)C[C@H](NC(=O)NNCc2ccccc2OC)[C@H]1NC(C)=O` displayed an IC50 against Neuraminidase of 2760 nM.

For `CCC(CC)O[C@@H]1C=C(C(=O)O)C[C@H](NC(=O)NNCc2ccc(OC)cc2)[C@H]1NC(C)=O`, the 50% inhibitory concentration (IC50) on Neuraminidase was found to be 567 nM. This IC50 is about 4.9-fold lower than that of the compound before.

Consider `CCCCCNNC(=O)N[C@H]1CC(C(=O)O)=C[C@@H](OC(CC)CC)[C@@H]1NC(C)=O`, for which the IC50 at Neuraminidase was 1100 nM. Against the preceding compound, the IC50 is about 1.9-fold higher.

`CCC(CC)O[C@@H]1C=C(C(=O)O)C[C@H](NC(=O)NNCCCc2ccccc2)[C@H]1NC(C)=O`: the midpoint of inhibition at Neuraminidase, the IC50, lay at 9150 nM.

Consider `CCC(CC)O[C@@H]1C=C(C(=O)O)C[C@H](NC(=O)NNCCC(C)C)[C@H]1NC(C)=O`, for which, on Neuraminidase, half-maximal inhibition (IC50) was put at 1530 nM.

`CCC(CC)O[C@@H]1C=C(C(=O)O)C[C@H](NC(=O)NNC2CCOCC2)[C@H]1NC(C)=O`: the half-inhibitory concentration (IC50) against Neuraminidase is 1210 nM.

`CCC(CC)O[C@@H]1C=C(C(=O)O)C[C@H](NC(=O)NNCCc2ccccc2)[C@H]1NC(C)=O` yielded an IC50 at Neuraminidase of 2460 nM.

Regarding `CCCCNNC(=O)N[C@H]1CC(C(=O)O)=C[C@@H](OC(CC)CC)[C@@H]1NC(C)=O`, the IC50 on Neuraminidase came to 38.3 nM; in [1], 332 nM.

In turn, `CCC(CC)O[C@@H]1C=C(C(=O)O)C[C@H](NC(=O)NNCc2cccc(Cl)c2)[C@H]1NC(C)=O` displayed an IC50 against Neuraminidase of 5850 nM. This lies in the single-digit micromolar range.

The compound `CCCCCCCCNNC(=O)N[C@H]1CC(C(=O)O)=C[C@@H](OC(CC)CC)[C@@H]1NC(C)=O` gave a 50% inhibitory concentration (IC50) against Neuraminidase of more than 10000 nM.

Regarding `CCC(CC)O[C@@H]1C=C(C(=O)O)C[C@H](NC(=O)NNCc2ccccc2Cl)[C@H]1NC(C)=O`, the IC50 against Neuraminidase stood at 586 nM. This counts as sub-micromolar.

`CCC(CC)O[C@@H]1C=C(C(=O)O)C[C@H](NC(=O)NNCc2cccc(OC)c2)[C@H]1NC(C)=O` yielded an IC50 against Neuraminidase of 326 nM.

For the compound `CCNNC(=O)N[C@H]1CC(C(=O)O)=C[C@@H](OC(CC)CC)[C@@H]1NC(C)=O`, it took 576 nM to reach half-maximal inhibition against Neuraminidase (IC50).

`CCC(CC)O[C@@H]1C=C(C(=O)O)C[C@H](NC(=O)NNCc2ccccc2)[C@H]1NC(C)=O` returned an IC50 on Neuraminidase of 4350 nM. This IC50 is about 7.6-fold higher than that of the compound before.

`CCC(CC)O[C@@H]1C=C(C(=O)O)C[C@H](NC(=O)NNCC(C)C)[C@H]1NC(C)=O` returned an IC50 on Neuraminidase of 2320 nM. Compared with the last compound, the IC50 is about 1.9-fold lower.

On to `CCC(CC)O[C@@H]1C=C(C(=O)O)C[C@H](NC(=O)NNCC2CC2)[C@H]1NC(C)=O`, for which the concentration for half-maximal inhibition (IC50) on Neuraminidase is 4110 nM.

On Neuraminidase, `CCCCCCNNC(=O)N[C@H]1CC(C(=O)O)=C[C@@H](OC(CC)CC)[C@@H]1NC(C)=O` had an IC50 of 4980 nM.

Compound `CCC(CC)O[C@@H]1C=C(C(=O)O)C[C@H](NC(=O)NNC)[C@H]1NC(C)=O` gave an IC50 in data set [1] of 249 nM.

The record behind these values is ChEMBL document CHEMBL4837229 (Eur J Med Chem, 2021).
